Publication PMC11173422, “Substitution-Induced Mechanistic Switching in SNAr-Warheads for Cysteine Proteases” (Molecules, 2024)
Like-named read-outs stand apart in the source and are kept apart here.

Columns and labels:
[1] = cited from earlier work
[2] = Parallel artificial membrane permeability assay (PAMPA); conditions: pH 7.4
Protocol: An artificial membrane consisting of phosphatidylcholine dissolved in n-dodecane was employed to control equilibration between two connected aqueous compartments, of which one contained the compound of interest. This model for compound permeation through a cell membrane was incubated, and the resulting concentration in the acceptor compartment was quantified spectroscopically.
A general literature-known principle was used [11]. Propranolol hydrochloride was sourced from Changzou Yabang Pharmaceutical (Fagron GmbH & Co. KG). Candesartan cilexetil was sourced as a chemical reference standard from the EDQM (catalogue code Y0001388).
Incubation setup consisted of donor (top) plate (Sigma Aldrich, MAIPNTR10), 5 µL artificial membrane
(1 % (w/v) L-α-phosphatidyl choline, Sigma Aldrich P3556, in n-dodecane, Sigma Aldrich 8205430100),
transparent measurement plate (Greiner UV-Star®, 655801), Tecan Spark 10M® well plate reader, 200 µL

[3] = Aqueous solubility observed in PAMPA set-up; format: physicochemical; conditions: buffered aqueous solution pH 7.4, 5% DMSO
Protocol: acceptor (bottom) plate (Greiner, 655074). Measurement setup for direct spectroscopy consisted of UV- […]
sample volume, λ = 200–650 nm. […]
elution (0.7 mL/min). Injection volume was 100 µL. Areas of peaks in the chromatogram (detection-λ = 210 nm) were used to calculate the AUCs. Retention time and mass spectrum recorded in positive ionization mode were used to assign species. Analysis was performed using MestreNova. […]
donor plate. This was sealed (Greiner, 676070, Viewseal sealer). 400 µL of acceptor solution was applied to the acceptor plate. Incubation setup was assembled and left for 7 h. After this time, acceptor and reference solutions were analyzed.
The acceptor solutions of those were measured
P௔௣௣ = −(௏ವ ା௏ಲ )∗஺∗௧ eq. 6

[4] = biological target: T1, Rhodesain (TbCatL) (Trypanosoma brucei rhodesiense, UniProt Q95PM0); conditions: lead compound, published data ref 17; cited from earlier work
T1 construct: stably transformed with the rhodesain ΔC gene cloned into the pPICZαA vector; made in house; host or cells: Pichia pastoris X-33 (pPICZαA, secreted into the culture supernatant)

[5] = system: Trypanosoma brucei; set-up: method as in PMID 32210166; conditions: cell cultures, free acid; cited from earlier work
[6] = biological target: rhodesain (Trypanosoma brucei rhodesiense, UniProt Q95PM0); set-up: stably transformed with the rhodesain ΔC gene cloned into the pPICZαA vector; made in house; host or cells: Pichia pastoris X-33 (pPICZαA, secreted into the culture supernatant); method as in PMID 32210166, PMID 34378914; conditions: cited from earlier work
rhodesain, sequence (Q95PM0 entry or part of it): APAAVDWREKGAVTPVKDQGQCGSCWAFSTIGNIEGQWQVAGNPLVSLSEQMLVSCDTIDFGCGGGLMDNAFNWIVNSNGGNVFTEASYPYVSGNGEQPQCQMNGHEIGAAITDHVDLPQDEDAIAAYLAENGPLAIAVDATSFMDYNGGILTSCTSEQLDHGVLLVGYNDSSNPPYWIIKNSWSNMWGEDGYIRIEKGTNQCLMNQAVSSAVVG

T1 sequence (Q95PM0 entry or part of it): as above

In the case of `CCOc1nc2cccc(C(=O)OC(C)OC(=O)OC3CCCCC3)c2n1Cc1ccc(-c2ccccc2-c2nnn[nH]2)cc1` (stereo not drawn) [Candesartan cilexetil, reference compound], the “Lit. Papp” value ([1]; literature value ref 37) is given as 0.6 [37] ×10^−6 cm/s and the Papp at 7 h, 100 µM [2] is given as 1.3 ± 0.2 ×10⁻⁶ cm/s.
In the case of `CC(C)C[C@H](NC(=O)[C@H](Cc1ccccc1)Nc1cc(F)c([N+](=O)[O-])cc1[N+](=O)[O-])C(=O)OC(C)(C)C` [Compound 21], the aqueous solubility [3] is reported as “poor aqueous solubility” and the Papp at 7 h, 100 µM [2] is reported as 3.4 ± 1.8 ×10⁻⁶ cm/s.
For `CC(C)C[C@H](NC(=O)[C@H](Cc1ccccc1)Nc1cc([N+](=O)[O-])c([N+](=O)[O-])cc1F)C(=O)O` [Compound I], the Ki [4] is given as 0.004 ± 0.0013 µM, the EC50 [5] is given as 20 µM and the “Adduct with rhodesain in MALDI-TOF-MS” value [6] is given as “no adduct could be detected”.
For `CC(C)NCC(O)COc1cccc2ccccc12` (stereo not drawn) [Propranolol, reference compound], the “Lit. Papp” value ([1]; literature value ref 35, 36) is given as 8–14 [35, 36] ×10^−6 cm/s and the Papp at 7 h, 100 µM [2] is given as 9.9 ± 1 ×10⁻⁶ cm/s.
